Results as given in US4550186A, “Binuclear copper (II) carboxylates formed from amine-carboxyboranes” (Duke University, priority 1983, dated 1985).
Read-outs that look alike come from different tables or passages of the source.

Key:
[1] = test system: ribonucleic acid synthesis of Ehrlich ascites cells; assay: In vitro whole cell incorporation: ribonucleic acid synthesis; assay type: cell-based, mouse; conditions: preliminary, 60 min, read-out: ID50, ribonucleic acid synthesis
Protocol: (§1) CF1 male mice (~30 g) were implanted with 2×10^6 Ehrlich ascites tumor cells, intraperitoneally on Day 0. Compound I was suspended by homogenation in 0.05% polysorbate.80-water and administered intraperitoneally at 10 and 20 mg/kg for 9 days to determine its effectiveness for inhibition of tumor growth. Mice were sacrificed on Day 10, and the ascites fluid was collected from the peritoneal cavity. The volume and ascrit (packed cell volume) were determined for each animal and the percent inhibition of tumor growth was calculated. For the metabolic studies, mice were treated on Days 8 and 9 with 10 mg/kg of Compound I, intraperitoneally. The animal was sacrificed on Day 10 and the ascites fluid harvested. The in vitro metabolic studies were performed at 0.25, 0.50 and 1 mmol final concentration of Compound I.
In vitro incorporation of ^3 H-thymidine, ^3 H-uridine, or ^3 H-leucine was determined using 10^6 Ehrlich ascites cells, 1 μCi labeled precursor, minimum essential medium and varying final concentrations of drug from 0.25-1.0 mM. The tubes were incubated at 37° C. for 60 min and inactivated by trichloroacetic acid. The acid insoluble labeled deoxyribonucleic acid was collected on GF/F glass filter discs and ribonucleic acid and protein were precipitated on nitrocellulose filters by vacuum suction. Results are expressed as dpm of incorporated precursor per hour per 10^6 cells.

[2] = molecular target: T1, ribosomal ribonucleic acid polymerase (Mus musculus, UniProt O35134+P70700); assay: In vitro ribosomal ribonucleic acid polymerase activity; assay type: biochemical; conditions: 0.25 to 1.0 mM
T1 construct: enzymes isolated from nuclei; endogenous in cells; host or cells: Ehrlich ascites tumor cell nuclei, ammonium sulfate fraction
Protocol: as §1
In vitro and in vivo nuclear deoxyribonucleic acid polymerase activity was determined on isolated Ehrlich ascites cell nuclei. The incubation was that described by Sawada et al [Can. Res., 34, 3341 (1974)] except that [methyl-^3 H] deoxythymidine triphosphate (82.4 Ci/mmol) was used. The acid insoluble nucleic acid was collected on GF/F filters and counted. Nuclear ribonucleic acid polymerase activities were determined on enzymes isolated from nuclei. […] The acid insoluble ribonucleic acid was collected on nitrocellulose filters and counted.

[3] = test system: inosinic acid dehydrogenase; assay: In vitro inosinic acid dehydrogenase activity; assay type: biochemical, mouse; conditions: 0.25 to 1.0 mM
Protocol: as §1, with “The animal was sacrificed on Day 10 and the ascites fluid harvested. The in vitro metabolic studies were performed at 0.25, 0.50 and 1 mmol final concentration of Compound I.” left out
(§2) Carbamyl phosphate synthetase activity was determined using the reaction medium of Kalman et al [Am. […] Citrulline formed from ornithine was measured at 490 nm by the method of Archibald [J. Biol. Chem., 156, 121 (1944)]. […] The ^14 CO2 generated in 15 min was trapped in 1M KOH and counted. Thymidylate synthetase activity was determined using a post-mitochondrial supernatant (9000 g×10 min) and 5 μCi of 5-^3 H-deoxyuridine monophosphate (14 Ci/mmol) according to the method of Kampf et al [ J. Med. Chem., 19, 903 (1976)]. ^14 C-Formate incorporation into purines was determined by the method of Spassova et al [Biochem. Pharmacol., 25, 923 (1976)] using 0.5 μCi of ^14 C-formic acid (52.0 mCi/mmol). […] The Rf value for xanthine monophosphate was scraped and counted. […]

CF1 male mice = assay: Acute toxicity (LD50); assay type: in vivo, mouse; conditions: CF1 mice intraperitoneally, single dose, 7 days
Protocol: The acute toxicity (LD50 values) was determined in CF1 male mice by administering test drugs intraperitoneally from 5-50 mg/kg as a single dose. The number of deaths recorded over 7 days in the group was determined for each dosage.

[4] = test system: Ehrlich ascites carcinoma; assay: Ehrlich ascites carcinoma growth in CF1 male mice; assay type: in vivo, mouse; conditions: for No. of Animals Survived on Day 10: 6 animals; for Ascrit Packed Cell Vol. / Vol(ml) Ascites Fluid: Day 10; for Percent Inhibition: Ehrlich ascites carcinoma growth
Protocol: as §1

deoxyribonuclease = assay: In vitro deoxyribonuclease activity; assay type: biochemical, mouse; conditions: read-out: ID50, Deoxyribonuclease activity
Protocol: as §1

[5] = test system: inosinic acid dehydrogenase; assay: In vivo inosinic acid dehydrogenase activity; parameters: species or system mouse
Protocol: as §1, with “The animal was sacrificed on Day 10 and the ascites fluid harvested. The in vitro metabolic studies were performed at 0.25, 0.50 and 1 mmol final concentration of Compound I.” left out
as §2

T1 sequence (P52432 whole entry): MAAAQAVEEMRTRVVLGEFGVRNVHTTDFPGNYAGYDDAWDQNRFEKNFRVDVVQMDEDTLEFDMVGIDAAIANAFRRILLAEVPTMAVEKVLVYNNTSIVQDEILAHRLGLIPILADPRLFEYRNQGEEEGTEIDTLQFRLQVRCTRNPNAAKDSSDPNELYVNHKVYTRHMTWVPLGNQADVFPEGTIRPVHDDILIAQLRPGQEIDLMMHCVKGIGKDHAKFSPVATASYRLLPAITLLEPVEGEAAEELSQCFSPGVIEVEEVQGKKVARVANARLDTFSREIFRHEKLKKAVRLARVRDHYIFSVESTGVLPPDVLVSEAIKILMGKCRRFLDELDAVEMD
T1 sequence (Q791N7 whole entry, further chain): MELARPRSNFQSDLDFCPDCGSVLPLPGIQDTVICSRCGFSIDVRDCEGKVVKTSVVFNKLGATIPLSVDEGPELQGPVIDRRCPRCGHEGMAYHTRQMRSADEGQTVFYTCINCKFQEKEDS
T1 sequence (P97304 whole entry, further chain): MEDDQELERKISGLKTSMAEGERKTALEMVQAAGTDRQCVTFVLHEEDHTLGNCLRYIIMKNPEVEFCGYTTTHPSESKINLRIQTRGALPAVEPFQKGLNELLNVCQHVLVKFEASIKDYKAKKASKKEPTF
T1 sequence (Q78WZ7 whole entry, further chain): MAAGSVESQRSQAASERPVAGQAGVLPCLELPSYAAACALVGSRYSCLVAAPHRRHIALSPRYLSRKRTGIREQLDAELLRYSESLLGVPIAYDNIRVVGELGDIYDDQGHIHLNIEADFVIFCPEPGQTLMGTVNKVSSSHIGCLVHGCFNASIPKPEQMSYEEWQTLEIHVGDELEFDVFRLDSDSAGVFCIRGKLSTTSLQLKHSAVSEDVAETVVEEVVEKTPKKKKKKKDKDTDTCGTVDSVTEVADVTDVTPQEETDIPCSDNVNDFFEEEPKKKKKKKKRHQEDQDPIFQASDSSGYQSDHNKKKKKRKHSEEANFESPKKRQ
T1 sequence (P70700 whole entry): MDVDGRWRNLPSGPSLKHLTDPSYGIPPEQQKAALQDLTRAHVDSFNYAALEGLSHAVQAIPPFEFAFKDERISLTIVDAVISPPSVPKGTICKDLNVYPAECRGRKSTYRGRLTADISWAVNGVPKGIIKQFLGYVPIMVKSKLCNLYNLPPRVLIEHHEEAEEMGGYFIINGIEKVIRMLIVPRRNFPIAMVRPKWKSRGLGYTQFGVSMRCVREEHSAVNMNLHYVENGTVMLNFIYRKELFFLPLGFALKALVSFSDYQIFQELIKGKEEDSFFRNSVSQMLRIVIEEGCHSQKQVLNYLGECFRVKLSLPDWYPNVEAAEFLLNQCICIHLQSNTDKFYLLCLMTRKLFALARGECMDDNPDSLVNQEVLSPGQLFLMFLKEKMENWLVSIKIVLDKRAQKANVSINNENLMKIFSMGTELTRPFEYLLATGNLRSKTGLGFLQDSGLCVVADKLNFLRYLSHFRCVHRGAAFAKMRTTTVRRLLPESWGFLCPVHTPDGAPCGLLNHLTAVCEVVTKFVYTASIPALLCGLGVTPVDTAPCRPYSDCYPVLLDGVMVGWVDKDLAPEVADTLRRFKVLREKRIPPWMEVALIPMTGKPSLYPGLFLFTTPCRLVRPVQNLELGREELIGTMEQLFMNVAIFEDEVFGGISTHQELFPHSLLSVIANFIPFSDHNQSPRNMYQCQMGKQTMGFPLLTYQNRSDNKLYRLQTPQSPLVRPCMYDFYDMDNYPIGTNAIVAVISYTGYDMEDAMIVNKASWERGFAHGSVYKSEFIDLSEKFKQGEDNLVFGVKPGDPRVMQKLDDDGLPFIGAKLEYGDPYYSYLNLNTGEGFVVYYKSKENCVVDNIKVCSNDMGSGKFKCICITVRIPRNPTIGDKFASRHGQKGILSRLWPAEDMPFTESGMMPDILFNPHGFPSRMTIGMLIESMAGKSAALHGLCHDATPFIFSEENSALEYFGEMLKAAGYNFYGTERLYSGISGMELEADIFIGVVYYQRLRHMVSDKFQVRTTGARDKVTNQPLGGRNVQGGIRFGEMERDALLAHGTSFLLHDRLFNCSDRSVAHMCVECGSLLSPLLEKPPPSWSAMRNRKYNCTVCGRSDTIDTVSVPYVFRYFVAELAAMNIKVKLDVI
T1 sequence (O35134 whole entry): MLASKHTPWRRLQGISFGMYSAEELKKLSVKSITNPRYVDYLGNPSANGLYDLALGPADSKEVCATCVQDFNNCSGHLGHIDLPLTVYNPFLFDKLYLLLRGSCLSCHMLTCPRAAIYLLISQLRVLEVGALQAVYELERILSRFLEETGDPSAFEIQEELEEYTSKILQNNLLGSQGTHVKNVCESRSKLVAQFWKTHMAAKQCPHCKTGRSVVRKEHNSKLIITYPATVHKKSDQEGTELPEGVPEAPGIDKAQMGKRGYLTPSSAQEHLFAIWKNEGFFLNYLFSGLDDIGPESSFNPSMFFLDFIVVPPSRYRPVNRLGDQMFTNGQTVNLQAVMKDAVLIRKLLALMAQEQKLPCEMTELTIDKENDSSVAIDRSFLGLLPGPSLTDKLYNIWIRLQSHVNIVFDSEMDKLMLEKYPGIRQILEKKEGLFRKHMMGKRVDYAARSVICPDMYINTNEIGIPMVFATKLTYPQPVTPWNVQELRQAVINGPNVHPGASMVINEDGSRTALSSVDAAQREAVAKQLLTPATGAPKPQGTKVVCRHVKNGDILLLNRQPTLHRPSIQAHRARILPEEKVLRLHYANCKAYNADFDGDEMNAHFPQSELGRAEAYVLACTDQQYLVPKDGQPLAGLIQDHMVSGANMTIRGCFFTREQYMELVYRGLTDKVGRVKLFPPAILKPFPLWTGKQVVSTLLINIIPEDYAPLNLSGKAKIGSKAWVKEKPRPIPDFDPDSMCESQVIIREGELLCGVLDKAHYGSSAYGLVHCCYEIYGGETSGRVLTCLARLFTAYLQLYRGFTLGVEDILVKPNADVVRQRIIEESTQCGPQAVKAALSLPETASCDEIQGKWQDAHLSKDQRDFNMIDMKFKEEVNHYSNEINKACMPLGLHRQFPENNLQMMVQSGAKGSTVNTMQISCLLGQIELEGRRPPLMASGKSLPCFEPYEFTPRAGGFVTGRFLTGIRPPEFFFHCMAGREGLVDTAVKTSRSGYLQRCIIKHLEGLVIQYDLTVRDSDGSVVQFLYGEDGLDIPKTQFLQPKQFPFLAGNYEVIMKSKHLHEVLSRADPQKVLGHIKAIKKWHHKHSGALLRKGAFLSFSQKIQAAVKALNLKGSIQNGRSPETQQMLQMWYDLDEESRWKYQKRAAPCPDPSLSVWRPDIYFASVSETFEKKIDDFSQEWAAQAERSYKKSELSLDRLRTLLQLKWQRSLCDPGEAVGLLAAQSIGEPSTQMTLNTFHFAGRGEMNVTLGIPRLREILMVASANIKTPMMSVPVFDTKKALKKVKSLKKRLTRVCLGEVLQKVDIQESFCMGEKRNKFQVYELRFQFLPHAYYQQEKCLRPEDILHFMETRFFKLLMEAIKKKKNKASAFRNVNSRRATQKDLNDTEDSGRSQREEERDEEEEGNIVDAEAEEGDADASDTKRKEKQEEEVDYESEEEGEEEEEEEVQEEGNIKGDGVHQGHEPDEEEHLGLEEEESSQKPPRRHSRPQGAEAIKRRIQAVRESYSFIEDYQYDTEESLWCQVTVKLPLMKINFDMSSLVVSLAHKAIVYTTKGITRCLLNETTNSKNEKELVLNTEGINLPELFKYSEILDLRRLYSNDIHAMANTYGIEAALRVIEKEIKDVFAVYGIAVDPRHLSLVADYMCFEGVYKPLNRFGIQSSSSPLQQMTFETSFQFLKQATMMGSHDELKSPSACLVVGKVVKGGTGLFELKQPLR

Substance: {Cu[(CH3)3 N.BH2 CO2 ]2.(CH3)3 N.BH2 COOH} [Compound I]
- IC50 [1]: 1820 µM
- ribosomal ribonucleic acid polymerase inhibition [2]: not inhibited
- inosinic acid dehydrogenase inhibition [3]: not inhibited
- LD50 (CF1 male mice): 39.2 mg/kg
- No. of Animals Survived on Day 10 ([4]; 10 mg/kg/day i.p.): 5
- Ascrit Packed Cell Vol. ([4]; 10 mg/kg/day i.p.): 18.5
- Vol(ml) Ascites Fluid ([4]; 10 mg/kg/day i.p.): 0.04 mL
- Percent Inhibition ([4]; 10 mg/kg/day i.p.): 99.7%
- No. of Animals Survived on Day 10 ([4]; 20 mg/kg/day i.p.): 6
- Ascrit Packed Cell Vol. ([4]; 20 mg/kg/day i.p.): 34.0
- Vol(ml) Ascites Fluid ([4]; 20 mg/kg/day i.p.): 0.32 mL
- Percent Inhibition ([4]; 20 mg/kg/day i.p.): 96.2%
- IC50 (deoxyribonuclease): 682 µM
- Inosinic acid dehydrogenase activity [5]: essentially not affected
- Inosinic acid dehydrogenase activity ([5]; 10 mg/kg/day I.P. on Days 8 and 9): 100 ± 9 % Control
